Results taken from US20170209579A1, “NON-INVASIVE RADIOFREQUENCY FIELD TREATMENT FOR CANCER THERAPY” (Baylor College of Medicine, priority 2014, published 2017).

Tests used:
[1] = tested on: Hep3B orthotopic tumors; experiment: Orthotopic Hep3B xenografts in CB17 SCID mice, tumor mass; type: in vivo, mouse
From the text: For in vivo studies, an implanted mouse model of human HCC was generated in CB17SCID mice (Taconic, Hudson, N.Y.). Female mice between 4 and 5 weeks in age were purchased and acclimatized in M.D. Anderson Animal facilities for up to one week. All animals were handled, housed and studied in accordance with the Institutional Animal Care and Use Committee. Tumors were generated after orthotopic implantation of approximately 1.6 million cells into the liver of each mouse (10 mice per group). Bioluminescence imaging indicated tumor development in the majority of mice three weeks after implantation. Euthanasia was performed by carbon dioxide inhalation followed by cervical spine dislocation.
Cultured luciferase and GFP-expression human HCC cell lines (Hep3B and HepG2) were harvested from an exponentially growing culture and washed with PBS. The cells were re-suspended in 3 ml PBS and final centrifugation was performed at 1000 RPM for 5 minutes. Supernatant was discarded and the cell pellet was used for implantation. The concentration of cells achieved using this protocol was 160,000 cells per micro liter. The cells were kept on ice and animals were injected within 3-4 hours after final centrifugation.
Before surgery, hair was removed from the ventral surface of the abdomen using clippers. Mice were anesthetized using 2.5% isoflurane. The surgical field was sterilized with 70% (v/v) ethanol in water. Mice were placed supine on a heating pad and the surgical site was sterilized using povidone iodine swab sticks. After confirming induction of anesthesia, an approximately 1-cm transverse incision was made in the skin of the upper abdomen slightly left of the midline. Deeper layers of muscle and peritoneum were incised and hemostasis was achieved using silver nitrate chemical cautery sticks. By applying gentle pressure on the lower abdomen and lower chest, the left lobe of the liver was eviscerated. […]
Mice with confirmed tumors on bioluminescence were then randomized in groups of 10. […] Sample size was calculated using Stata SE 12.1 for Mac (College Station, Tex.). […]

[2] = tested on: SNU449 cells; experiment: Clonogenic assay, SNU449 cells; type: cell-based, human; conditions: irrespective of dose schedule
Experimental: (§1) Clonogenic assay estimates single-cell reproductive viability by measuring the ability of a single cell to form a colony of 50 cells or more. Clonogenic assay in this study was performed as described previously (Franken et al., 2006). Briefly, cancer cells from an exponentially growing, sub-confluent culture were trypsinized and harvested. Approximately 200 cells were counted and plated in each well of a 6-well plate. Approximately 12 hours later, the cells were adherent and treatment conditions were introduced as described herein. After varying treatments, media was replaced and cells were allowed 14 days to form colonies. Subsequently, the media was aspirated and cells were washed with PBS once. Colonies were then fixed with glutaraldehyde (6.0% v/v) and stained with crystal violet (0.5% w/v) for 30 minutes on a leveled shaker at 50 RPM. The fixation and staining solution was then aspirated and the 6-well plates were air-dried after gentle rinsing with tap water. The number of colonies in each well was counted using a colony counting grid. […]
(§2) Clonogenic assays were performed on Hep3B cells and SNU449 cells after one of two combinations of hyperthermia and gemcitabine compared with hyperthermia or gemcitabine alone. […] Next, clonogenic viability was evaluated at a gemcitabine concentration of 5 ng/ml and varied the duration of hyperthermia (30 minutes to 4 hours).

[3] = tested on: Hep3B cells; experiment: Clonogenic assay, Hep3B cells; type: cell-based, human
Experimental: as §1
as §2, with “hours). […]” for “hours).”

SMILES: Nc1ccn([C@@H]2O[C@H](CO)[C@@H](O)C2(F)F)c(=O)n1 [gemcitabine, 2′,2′-difluoro 2′-deoxycytidine]
- Mean tumor mass [±SD] ([1]; RF then gemcitabine (RF 10 min, 600 W, immediately followed by gemcitabine)): 180 ± 91 mg
- Mean tumor mass [±SD] ([1]; gemcitabine alone, 70 mg/kg/dose twice a week for three weeks): 661 ± 419 mg
- Mean tumor mass [±SD] ([1]; gemcitabine then RF (RF 24 hours later)): 291 ± 126 mg
- clonogenic survival, gemcitabine combined with hyperthermia [2]: dose-dependent enhancement of gemcitabine toxicity
- clonogenic survival, gemcitabine combined with hyperthermia ([3]; Hep3B, irrespective of dose schedule): dose-dependent enhancement of gemcitabine toxicity
- clonogenic viability, varied duration of hyperthermia ([3]; gemcitabine 5 ng/ml, hyperthermia 30 minutes to 4 hours, cell line not named in the sentence (Hep3B and SNU449 in FIG. 17)): thermal dose-dependent enhancement in toxicity
